{"source": "patent US12195505B2", "about": "“Treatment of cystic fibrosis by delivery of nebulized mRNA encoding CFTR” (Translate Bio, Inc., priority 2018, dated 2025)", "system": "human bronchial epithelial cells", "test": "Ussing chamber assay, Forskolin-induced chloride channel activity", "assay_type": "cell-based", "details": "added after current measurement, all groups", "procedure": "The changes in chloride transport across the bronchial epithelial cell membrane was measured by short circuit current output in a Ussing epithelial voltage clamp apparatus (i.e., a Ussing chamber). Specifically, using an established Ussing Chamber procedure (Charles River Laboratories), hCFTR mRNA encapsulated in a liposome comprising ICE, DOPE, and a PEG-modified lipid was incubated for 2 or 4 hours on the apical (mucosal) or basolateral (serosal) sides, or both sides, of human bronchial epithelial cells. A buffer blank also was included as a control, for example, to assess chloride transport by endogenous CFTR in the cells. Next, Forskolin-induced chloride channel activity was measured using the Ussing chamber assay."}
{"compound": "O=C(O)c1ccc(/C=C2\\SC(=S)N(c3cccc(C(F)(F)F)c3)C2=O)cc1", "note": "[CFTR inhibitor-172]", "values": [{"measurement": "Effect on chloride activity in Ussing chamber", "result": "inhibited"}]}
